# Patent US20240269238A1, “Therapeutic Regimens and Methods for Reducing Body Weight in a Subject with Fatty Liver Disease using a GLP-1R and GCGR Agonist” (Spitfire Pharma LLC, priority 2022, published 2024)
# Columns and labels:
# Type in all cases: in vivo, human
# [1] = Phase 1b 24-week NAFLD study (Example 3): body weight loss; details: for weight loss: Week 24
# Excerpt: (§1) Provided herein is disclosure of a 12-week extension study of the study provided in Example 1, providing a 24-week a Phase 1b, randomized, double-blind, placebo-controlled study to assess the effects of pemvidutide (also termed herein as ALT-801), the safety of pemvidutide and effects on weight loss, hepatic fat fraction, anthropometric parameters, lipid metabolism, as well as inflammatory, fibrosis and other markers in diabetic and non-diabetic (type 2 diabetes) overweight and obese (BMI≥28.0 kg/m^2) subjects with NAFLD (defined as liver fat content (LFC) by MRI-PDFF ≥10%; absence of significant fibrosis, defined as FibroScan® LSM ≤10 kPa), alanine aminotransferase (ALT) and aspartate aminotransferase (AST) laboratory values of ≤75 IU/L and HbA1c <9.5. Men and women aged 18-65 years were studied. Diabetic subjects were defined as those that have undergone stable dose (≥3 months) metformin or SLGT-2 therapy and no use of insulin, sulfonylureas, DPP-4, GLP-1 treatment; Ninety-four (94) subjects were enrolled in the initial 12-week Phase 1b NAFLD trial and 83 subjects who completed were invited to receive a total of 12 additional weeks of blinded treatment. Of those subjects, 66 consented to rollover, of which 64 were eligible to participate.
# (§2) The primary endpoint of this study was a reduction in liver fat content (LFC) by MRI-PDFF at Week 24 compared to Week 0 (zero). Key secondary endpoints include percent (%) weight loss at Week 24 compared to Week 0 (zero), and liver inflammation by alanine aminotransferase (ALT) levels and corrected T1 (cT1) imaging at Week 24 as compared to Week 0 (zero). Adverse events (AEs), including serious and severe AEs, AEs leading to discontinuation, GI tolerability, vital signs, and glycemic control including fasting glucose and HbA1c levels were also measured.
# [2] = Phase 1b 24-week NAFLD study (Example 3): serum lipids, blood pressure, heart rate, glycemic control
# Excerpt: as §1, §2
# [3] = Phase 1 12-week study in overweight/obese subjects (NCT0456124, Example 2): key pharmacodynamic endpoints
# Experimental: To test the lipid-lowering effects of pemvidutide, an analysis of Phase I clinical trial (NCT0456124) data was carried out. The subjects with overweight/obesity (BMI 25-40 kg/m^2) were randomized at 1 site in Australia (NCT0456124). Subjects were randomized 4:1 pemvidutide:placebo, with placebos pooled. […] Lipoprotein and glycoprotein profiling covering 33 lipoprotein related parameters was performed by ^1H-NMR on fasting plasma samples obtained at Day −1 (baseline), Day 43, and Day 84 from the 34 subjects who completed NCT0456124. Lipidomic profiling covering 600 lipid species was performed by ultra-high performance liquid chromatography-mass spectrometry on fasting plasma samples obtained at Day −1 (baseline), Day 43, and Day 84 from the 34 subjects who completed NCT0456124. For the lipid profiling, plasma fractionation was performed either using methanol to extract fatty acyls, bile acids, steroids, and lyso-glycerophospholipids, or using a chloroform/methanol mix to extract glycerolipids, cholesteryl esters, sphingolipids, and glycerophospholipids. Lipid classification followed the classification system proposed by Fahy et al. (J. Lipid Res. 2005; 46:839-861) and the LIPID MAPS initiative (http://www.lipidmaps.org) (see FIG. 8).
smiles,measurement,setting,value
"CC[C@H](C)[C@H](NC(=O)[C@H](Cc1ccccc1)NC(=O)[C@H](CCC(=O)O)NC(=O)[C@@H]1CCCCNC(=O)CC[C@H](NC(=O)[C@H](CC(=O)O)NC(=O)[C@H](CC(C)C)NC(=O)[C@H](Cc2ccc(O)cc2)NC(=O)[C@H](CCCCN)NC(=O)[C@H](CO)NC(=O)[C@H](Cc2ccc(O)cc2)NC(=O)[C@H](CC(=O)O)NC(=O)[C@H](CO)NC(=O)[C@@H](NC(=O)[C@H](Cc2ccccc2)NC(=O)[C@@H](NC(=O)CNC(=O)[C@H](CCC(N)=O)NC(=O)C(C)(C)NC(=O)[C@@H](N)Cc2c[nH]cn2)[C@@H](C)O)[C@H](C)O)C(=O)N[C@@H](CCCCNC(=O)C2O[C@@H](OCCCCCCCCCCCCCCCCCC(=O)O)C(O)C(O)[C@@H]2O)C(=O)N[C@@H](C)C(=O)N[C@@H](C)C(=O)N1)C(=O)N[C@@H](CCC(N)=O)C(=O)N[C@@H](Cc1c[nH]c2ccccc12)C(=O)N[C@@H](CC(C)C)C(=O)N[C@@H](CC(C)C)C(=O)N[C@@H](CCC(N)=O)C(=O)N[C@H](C(N)=O)[C@@H](C)O (some centres unmarked) [ALT-801, Pemvidutide]",weight loss (in words),[1]; Week 24 compared to Week 12,continued weight loss
same,weight loss,[1]; diabetic subjects,5.3%
same,weight loss,[1]; non-diabetic subjects,7.2%
same,systolic blood pressure reduction,"[2]; 2.4 mg per week, week 24",significant
same,blood pressure and heart rate,"[2]; all doses, week 24",improvements in blood pressure without clinically meaningful increases in heart rate
same,serum lipids,"[2]; all doses, week 24",improvements in serum lipids
same,glycemic parameters (fasting glucose and HbA1c),"[2]; diabetic patients, all doses, Week 24",improvements in glycemic parameters
same,"Apoprotein B, change from baseline, mean","[3]; 1.2 mg weekly, 12 weeks",−45.4%
same,"BMI, change from baseline, mean","[3]; 1.2 mg weekly, 12 weeks",−4.8%
same,"Diastolic BP, change from baseline, mean","[3]; 1.2 mg weekly, 12 weeks",−4.7%
same,"HDL cholesterol, change from baseline, mean","[3]; 1.2 mg weekly, 12 weeks",−16.7%
same,"LDL cholesterol, change from baseline, mean","[3]; 1.2 mg weekly, 12 weeks",−18.4%
same,"Systolic BP, change from baseline, mean","[3]; 1.2 mg weekly, 12 weeks",−10.2%
same,"Total cholesterol, change from baseline, mean","[3]; 1.2 mg weekly, 12 weeks",−20.0%
same,"Triglycerides, change from baseline, mean","[3]; 1.2 mg weekly, 12 weeks",−37.0%
same,"Weight loss, change from baseline, mean","[3]; 1.2 mg weekly, 12 weeks (n = 7)",−4.9%
same,"mean body weight loss, placebo adjusted","[3]; 1.8 mg dose level, 12 weeks",8.7%
same,mean body weight loss,"[3]; 1.8 mg dose level, 12 weeks of weekly treatment",10.3%
same,subjects achieving at least 10% body weight loss,"[3]; 1.8 mg group, week 12",over half
same,subjects losing at least 5% of body weight,"[3]; 1.8 mg group, week 12",all subjects lost at least 5% of their body weight
same,"Apoprotein B, change from baseline, mean","[3]; 1.8 mg weekly, 12 weeks",−23.4%
same,"BMI, change from baseline, mean","[3]; 1.8 mg weekly, 12 weeks",−10.4%
same,"Diastolic BP, change from baseline, mean","[3]; 1.8 mg weekly, 12 weeks",−7.1%
same,"HDL cholesterol, change from baseline, mean","[3]; 1.8 mg weekly, 12 weeks",−30.3%
same,"LDL cholesterol, change from baseline, mean","[3]; 1.8 mg weekly, 12 weeks",−25.6%
same,"Systolic BP, change from baseline, mean","[3]; 1.8 mg weekly, 12 weeks",−12.5%
same,"Total cholesterol, change from baseline, mean","[3]; 1.8 mg weekly, 12 weeks",−28.0%
same,"Triglycerides, change from baseline, mean","[3]; 1.8 mg weekly, 12 weeks",−37.9%
same,"Weight loss, change from baseline, mean","[3]; 1.8 mg weekly, 12 weeks (n = 9)",−10.3%
same,"Apoprotein B, change from baseline, mean","[3]; 2.4 mg weekly, 12 weeks",−16.8%
same,"BMI, change from baseline, mean","[3]; 2.4 mg weekly, 12 weeks",−7.0%
same,"Diastolic BP, change from baseline, mean","[3]; 2.4 mg weekly, 12 weeks",−6.0%
same,"HDL cholesterol, change from baseline, mean","[3]; 2.4 mg weekly, 12 weeks",−36.0%
same,"LDL cholesterol, change from baseline, mean","[3]; 2.4 mg weekly, 12 weeks",−23.9%
same,"Systolic BP, change from baseline, mean","[3]; 2.4 mg weekly, 12 weeks",−17.4%
same,"Total cholesterol, change from baseline, mean","[3]; 2.4 mg weekly, 12 weeks",−27.7%
same,"Triglycerides, change from baseline, mean","[3]; 2.4 mg weekly, 12 weeks",−29.2%
same,"Weight loss, change from baseline, mean","[3]; 2.4 mg weekly, 12 weeks (n = 11)",−9.0%
